Test results reported in US10793526B2, “Hydantoin derivative compounds, methods of use and methods of treatment” (University of South Florida, priority 2016, dated 2020).

Tests used:
[1] = tested on: P. aeruginosa (ATCC 27853); experiment: Minimum inhibitory concentration (MIC) assay, P. aeruginosa; type: cell-based, Pseudomonas aeruginosa; details: for MIC: Pseudomonas aeruginosa, ATCC27853, read-out: MIC (μg/mL) P.A.; for MIC / MIC (μg/mL) P.A.: Gram negative, ATCC 27853, 16 h incubation
Procedure: (§1) Minimum inhibitory concentrations (MICs) assay.^2
(§2) All compounds were tested against six different bacteria strains: methicillin-resistant S. aureus (MRSA, ATCC 33591), E. coli (ATCC 25922), methicillin-resistant S. epidermidis (MRSE, RP62A), K. pneumoniae (ATCC 13383), vancomycin-resistant Enterococcus faecalis (VREF, ATCC 700802), P. aeruginosa (ATCC 27853). One colony of each bacteria was inoculated in 4 mL TSB buffer at 37° C. overnight, which was then diluted 100 times, and the bacteria were allowed to grow to the mid-logarithmic phase. 50 μL hydantoin compounds in 2-fold serial dilution of TSB were added in the 96-well plate, then 50 μL diluted bacterial in TSB medium (1×10^6 CFU/mL) was added to each well. After 16 h of incubation at 37° C., the absorption at 600 nm wavelength on a Biotek Synergy HT microtiter plate reader was recorded. Minimum inhibitory concentrations were determined as the lowest concentrations that inhibited bacteria growth completely.

[2] = tested on: vancomycin-resistant Enterococcus faecalis (VREF, ATCC 700802); experiment: Minimum inhibitory concentration (MIC) assay, VREF; type: cell-based; details: 16 h incubation; for MIC: Enterococcus faecalis, ATCC700802, Gram positive, read-out: MIC (μg/mL) VREF; for MIC (μg/mL) VREF: Gram positive
Procedure: as §1, §2

[3] = tested on: methicillin-resistant S. epidermidis (MRSE, RP62A); experiment: Minimum inhibitory concentration (MIC) assay, MRSE; type: cell-based, Staphylococcus epidermidis; details: Gram positive, 16 h incubation; for MIC: Staphylococcus epidermidis, MRSE, read-out: MIC (μg/mL) MRSE
Procedure: as §1, §2

[4] = tested on: K. pneumoniae (ATCC 13383); experiment: Minimum inhibitory concentration (MIC) assay, K. pneumoniae; type: cell-based, Klebsiella pneumoniae; details: 16 h incubation; for MIC: Klebsiella pneumoniae, ATCC13383, Gram negative, read-out: MIC (μg/mL) K.P.; for MIC (μg/mL) K.P.: Gram negative
Procedure: as §1, §2

[5] = tested on: methicillin-resistant S. aureus (MRSA, ATCC 33591); experiment: Minimum inhibitory concentration (MIC) assay, MRSA; type: cell-based, Staphylococcus aureus; details: Gram positive, ATCC 33591, 16 h incubation; for MIC: Staphylococcus aureus, read-out: MIC (μg/mL) MRSA
Procedure: as §1, §2

[6] = tested on: E. coli (ATCC 25922); experiment: Minimum inhibitory concentration (MIC) assay, E. coli; type: cell-based, Escherichia coli; details: 16 h incubation; for MIC: Escherichia coli, ATCC25922, Gram negative, read-out: MIC (μg/mL) E. coli; for MIC (μg/mL) E. coli: Gram negative
Procedure: as §1, §2

[7] = tested on: panel of Gram-positive and Gram-negative bacteria; experiment: Antimicrobial activity against the whole panel of bacteria; type: cell-based; details: for antibacterial activity of compounds with HPLC RT values less than 26 min: statement relating activity to retention time; for antimicrobial activity across the tested bacterial strains: all tested strains
Procedure: as §1, §2

SMILES | MIC [1] [µg/mL] | MIC [2] [µg/mL] | MIC [3] [µg/mL] | MIC [4] [µg/mL] | MIC [5] [µg/mL] | MIC [6] [µg/mL] | MIC (μg/mL) P.A. [1] [µg/mL] | MIC (μg/mL) VREF [2] [µg/mL] | MIC (μg/mL) MRSE [3] [µg/mL] | MIC (μg/mL) K.P. [4] [µg/mL] | MIC (μg/mL) MRSA [5] [µg/mL] | MIC (μg/mL) E. coli [6] [µg/mL] | activity toward Pseudomonas aeruginosa ([1]; under the tested condition) | antibacterial activity of compounds with HPLC RT values less than 26 min [7] | MIC ([7]; range over most strains of the panel, read-out: MICs against most of bacteria) [µg/mL] | antimicrobial activity across the tested bacterial strains [7]
CCCCCCCCCCCCCCCC(=O)N[C@@H](CCCCN)CN1CC(=O)N(CCCC)C1=O [Compound 8, (S)—N-(6-amino-1-(3-butyl-2,4-dioxoimidazolidin-1-yl)hexan-2-yl)palmitamide] | > 50 | 6.25 | 6.25 | > 50 | 6.25 | > 50 |  |  |  |  |  |  |  |  |  | 
CCCCCCCCCCCCCC(=O)N[C@@H](CCCCN)CN1CC(=O)N(C23CC4CC(CC(C4)C2)C3)C1=O [Compound 15, N—((S)-1-(3-((3R,5R,7R)-adamantan-1-yl)-2,4-dioxoimidazolidin-1-yl)-6-aminohexan-2-yl) tetradecanamide] |  |  |  |  |  |  | >50 | 6.25 | 3.15 | >50 | 3.12 | >50 |  |  |  | 
CCCCCCCCCCCCCCCC(=O)N[C@@H](CCCCN)CN1CC(=O)N(CC)C1=O [Compound 4, (S)—N-(6-amino-1-(3-ethyl-2,4-dioxoimidazolidin-1-yl)hexan-2-yl)palmitamide] | > 50 | 3.12 | 3.12 | 12.5 | 3.12 | 3.12 |  |  |  |  |  |  | abolishes its activity | no apparent antibacterial activity |  | 
O=C1CN(/N=C/c2ccc([N+](=O)[O-])o2)C(=O)N1 [Compound 26, nitrofurantoin, reference compound] | > 50 | 12.5 | 6.25 | 25 | 12.5 | 6.25 |  |  |  |  |  |  |  |  | 6.25 to 25 | 
CCCCCCCCCCCCCCCC(=O)N[C@@H](CCCCN)CN1CC(=O)N(c2cccc(Cl)c2)C1=O [Compound 24, (S)—N-(6-amino-1-(3-(3-chlorophenyl)-2,4-dioxoimidazolidin-1-yl)hexan-2-yl)palmitamide] | > 50 | 12.5 | 12.5 | > 50 | 12.5 | > 50 |  |  |  |  |  |  |  |  |  | 
CCCCCCCCCC(=O)N[C@@H](CCCCN)CN1CC(=O)N(CCCC)C1=O [Compound 5, (S)—N-(6-amino-1-(3-butyl-2,4-dioxoimidazolidin-1-yl)hexan-2-yl)decanamide] | > 50 | > 50 | > 50 | > 50 | > 50 | > 50 |  |  |  |  |  |  |  | no apparent antibacterial activity |  | doesn't have any antimicrobial activity
CCCCCCCCCCCCCC(=O)N[C@@H](CCCCN)CN1CC(=O)N(CCCC)C1=O [Compound 7, (S)—N-(6-amino-1-(3-butyl-2,4-dioxoimidazolidin-1-yl)hexan-2-yl)tetradecanamide] | > 50 | 6.25 | 6.25 | 12.5 | 6.25 | 6.25 |  |  |  |  |  |  |  |  |  | 
CCCCCCCCCCCCCC(=O)N[C@@H](CCCCN)CN1CC(=O)N(c2cccc(Cl)c2)C1=O [Compound 23, (S)—N-(6-amino-1-(3-(3-chlorophenyl)-2,4-dioxoimidazolidin-1-yl)hexan-2-yl)tetradecanamide] | > 50 | 12.5 | 12.5 | > 50 | 12.5 | > 50 |  |  |  |  |  |  |  |  |  | 
CCCCCCCCCCCCCC(=O)N[C@@H](CCCCN)CN1CC(=O)N(C2CCCCC2)C1=O [Compound 11, (S)—N-(6-amino-1-(3-cyclohexyl-2,4-dioxoimidazolidin-1-yl)hexan-2-yl)tetradecanamide] | > 50 | 6.25 | 6.25 | 6.25 | 3.12 | 12.5 |  |  |  |  |  |  |  |  |  | 
CCCCCCCCCC(=O)N[C@@H](CCCCN)CN1CC(=O)N(CC)C1=O [Compound 1, (S)—N-(6-amino-1-(3-ethyl-2,4-dioxoimidazolidin-1-yl)hexan-2-yl)decanamide] | > 50 | > 50 | > 50 | > 50 | > 50 | > 50 |  |  |  |  |  |  |  | no apparent antibacterial activity |  | doesn't exhibit any activity
CCCCCCCCCCCCCCCC(=O)N[C@@H](CCCCN)CN1CC(=O)N(C2CCCCC2)C1=O [Compound 12, (S)—N-(6-amino-1-(3-cyclohexyl-2,4-dioxoimidazolidin-1-yl)hexan-2-yl)palmitamide] | > 50 | 25 | 25 | > 50 | 3.12 | > 50 |  |  |  |  |  |  |  |  |  | 
CCCCCCCCCCCC(=O)N[C@@H](CCCCN)CN1CC(=O)N(CC)C1=O [Compound 2, (S)—N-(6-amino-1-(3-ethyl-2,4-dioxoimidazolidin-1-yl)hexan-2-yl)dodecanamide] | > 50 | > 50 | > 50 | > 50 | > 50 | 12.5 |  |  |  |  |  |  |  | no apparent antibacterial activity |  | 
CCCCCCCCCCCC(=O)N[C@@H](Cc1ccccc1)CN1CC(=O)N(c2cccc(Cl)c2)C1=O [Compound 25, (S)—N-(1-(3-(3-chlorophenyl)-2,4-dioxoimidazolidin-1-yl)-3-phenylpropan-2-yl)dodecanamide] | > 50 | > 50 | > 50 | > 50 | > 50 | > 50 |  |  |  |  |  |  |  | no apparent antibacterial activity |  | fails to show any antimicrobial activity
CCCCCCCCCC(=O)N[C@@H](CCCCN)CN1CC(=O)N(c2ccc(OC)cc2)C1=O [Compound 17, (S)—N-(6-amino-1-(3-(4-methoxyphenyl)-2,4-dioxoimidazolidin-1-yl)hexan-2-yl)decanamide] | > 50 | > 50 | > 50 | > 50 | > 50 | > 50 |  |  |  |  |  |  |  | no apparent antibacterial activity |  | 
CCCCCCCCCCCCCCCC(=O)N[C@@H](CCCCN)CN1CC(=O)N(c2ccc(OC)cc2)C1=O [Compound 20, (S)—N-(6-amino-1-(3-(4-methoxyphenyl)-2,4-dioxoimidazolidin-1-yl)hexan-2-yl)palmitamide] | > 50 | 6.25 | 6.25 | > 50 | 3.12 | > 50 |  |  |  |  |  |  |  |  |  | 
CCCCCCCCCCCCCC(=O)N[C@@H](CCCCN)CN1CC(=O)N(c2ccc(OC)cc2)C1=O [Compound 19, (S)—N-(6-amino-1-(3-(4-methoxyphenyl)-2,4-dioxoimidazolidin-1-yl)hexan-2-yl)tetradecanamide] | > 50 | 6.25 | 6.25 | 25 | 6.25 | 6.25 |  |  |  |  |  |  |  |  |  | 
CCCCCCCCCCCC(=O)N[C@@H](CCCCN)CN1CC(=O)N(C23CC4CC(CC(C4)C2)C3)C1=O [Compound 14, N—((S)-1-(3-((3R,5R,7R)-adamantan-1-yl)-2,4-dioxoimidazolidin-1-yl)-6-aminohexan-2-yl) dodecanamide] |  |  |  |  |  |  | >50 | 6.25 | 6.25 | >50 | 6.25 | 12.5 |  |  |  | 
CCCCCCCCCCCCCCCC(=O)N[C@@H](CCCCN)CN1CC(=O)N(C23CC4CC(CC(C4)C2)C3)C1=O [Compound 16, N—((S)-1-(3-((3R,5R,7R)-adamantan-1-yl)-2,4-dioxoimidazolidin-1-yl)-6-aminohexan-2-yl) palmitamide] |  |  |  |  |  |  | >50 | >50 | >50 | >50 | >50 | >50 |  |  |  | 
